The values that follow come from publication PMC2728625 (Nature structural & molecular biology, 2009).

Marks after values point to notes of the source that are not given here.

For data set [1], the target named is T1, PV RdRp WT (Poliovirus type 1, UniProt P03300). Format: biochemical.
For a further data set, the target named is T7 DdRp WT (Escherichia phage T7, UniProt P00573). Format: biochemical.
A further data set deals with T7 DdRp K631L (Escherichia phage T7, UniProt P00573, K631L). It is filed as biochemical.
Data set [2] concerns the target T1, PV RdRp WT. Format: biochemical. The source holds these as a separate data set.
The target in data set [3] is T1, PV RdRp WT. The settings on record: cited from earlier work.
[4] abbreviates: read-out: Kd,app (apparent dissociation constant for nucleotide).

Sequence of T7 DdRp K631L (P00573 whole entry K631L, looked up): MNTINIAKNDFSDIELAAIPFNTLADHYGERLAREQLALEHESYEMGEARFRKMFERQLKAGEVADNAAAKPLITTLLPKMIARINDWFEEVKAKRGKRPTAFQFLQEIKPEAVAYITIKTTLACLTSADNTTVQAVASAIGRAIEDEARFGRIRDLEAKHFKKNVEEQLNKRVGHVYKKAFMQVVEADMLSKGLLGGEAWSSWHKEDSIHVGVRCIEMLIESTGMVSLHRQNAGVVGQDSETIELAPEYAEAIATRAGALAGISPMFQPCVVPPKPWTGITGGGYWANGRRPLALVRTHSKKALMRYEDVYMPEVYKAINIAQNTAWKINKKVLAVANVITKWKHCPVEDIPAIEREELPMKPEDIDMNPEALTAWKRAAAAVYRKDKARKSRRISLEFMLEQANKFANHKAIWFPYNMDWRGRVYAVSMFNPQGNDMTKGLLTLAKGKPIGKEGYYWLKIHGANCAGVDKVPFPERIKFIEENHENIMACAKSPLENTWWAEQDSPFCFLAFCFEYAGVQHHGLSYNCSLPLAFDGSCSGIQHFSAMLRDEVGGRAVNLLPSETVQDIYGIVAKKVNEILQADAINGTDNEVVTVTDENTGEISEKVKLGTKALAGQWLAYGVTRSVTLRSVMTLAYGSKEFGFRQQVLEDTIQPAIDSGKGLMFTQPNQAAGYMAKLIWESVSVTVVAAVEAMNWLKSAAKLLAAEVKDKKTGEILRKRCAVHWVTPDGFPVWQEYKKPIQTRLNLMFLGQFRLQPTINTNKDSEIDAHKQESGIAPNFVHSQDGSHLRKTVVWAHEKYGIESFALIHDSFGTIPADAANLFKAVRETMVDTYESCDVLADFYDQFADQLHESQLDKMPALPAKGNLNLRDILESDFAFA
T1 sequence (P03300 1749-2209 limits assumed): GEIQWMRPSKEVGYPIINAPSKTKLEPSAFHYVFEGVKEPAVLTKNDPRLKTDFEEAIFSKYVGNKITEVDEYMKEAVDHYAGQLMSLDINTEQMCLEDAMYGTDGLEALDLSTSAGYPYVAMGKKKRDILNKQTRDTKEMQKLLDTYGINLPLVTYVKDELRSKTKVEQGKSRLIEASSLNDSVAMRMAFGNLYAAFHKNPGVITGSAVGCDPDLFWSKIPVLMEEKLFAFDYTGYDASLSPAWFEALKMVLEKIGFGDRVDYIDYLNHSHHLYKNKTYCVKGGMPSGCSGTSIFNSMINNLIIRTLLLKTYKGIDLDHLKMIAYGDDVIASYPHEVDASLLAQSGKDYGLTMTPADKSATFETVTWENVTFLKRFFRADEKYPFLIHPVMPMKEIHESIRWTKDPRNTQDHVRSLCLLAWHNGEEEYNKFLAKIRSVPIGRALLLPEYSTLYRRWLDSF
Sequence of T7 DdRp WT (P00573 whole entry, looked up): as the sequence (P00573 whole entry K631L, looked up) above, with L631K counted along it

Consider `Nc1ncnc2c1ncn2[C@@H]1O[C@H](COP(=O)(O)OP(=O)(O)OP(=O)(O)O)[C@@H](O)[C@H]1O` [ATP], for which the “PI (proton inventory: proton-transfer model that best fits)” value at PV RdRp WT [1] and on T7 DdRp WT was 2 in each case. Further, the “SDKIE (solvent deuterium kinetic isotope effect)” value was 3.0 ± 0.3 on PV RdRp WT [1], 5.2 ± 0.5 on T7 DdRp WT and 2.6 ± 0.5 ^c at T7 DdRp K631L. For the same molecule, the “kpol (maximal rate constant for nucleotide incorporation)” value on PV RdRp WT [1] came out at 50 ± 5 s⁻¹; at T7 DdRp WT (pH 7.5), 60 ± 5 s⁻¹; on T7 DdRp K631L, 0.6 ± 0.1 s⁻¹. Besides, the Kd on PV RdRp WT [1] (setting [4]) is 200 ± 20 µM; on T7 DdRp WT (read-out: Kd,app (apparent dissociation constant for nucleotide), pH 7.5), 300 ± 30 µM; at T7 DdRp K631L (setting [4]), 50000 µM. Moreover, the “reduction in kpol relative to wt” value at T7 DdRp K631L is 100 fold. The molecule also came in with an SDKIE at PV RdRp WT [2] of 7 ± 1. The “pKa from pH rate profile of kpol, second ionizable group” value at PV RdRp WT [3] is given as 10.5.
